# How the values were obtained:
# [1] = target: Dual specificity protein kinase CLK1 (Homo sapiens) (UniProt P49759); test: Inhibition of CLK1 (unknown origin) at 1 uM by single point assay
# [2] = target: T1, Leucine-rich repeat serine/threonine-protein kinase 2 (Homo sapiens, UniProt Q5S007, G2019S); test: Inhibition of LRRK2 G2019S mutant (unknown origin) Ser935 phosphorylation expressed in HEK293 cells by cell-based assay
# [3] = target: Leucine-rich repeat serine/threonine-protein kinase 2 (Homo sapiens, UniProt Q5S007); test: Inhibition of wild type GST-tagged LRRK2 (970-2527 amino acids)(unknown origin) assessed as inhibition of LRRKtide phosphorylation by HTRF assay
# Leucine-rich repeat serine/threonine-protein kinase 2 (Homo sapiens, UniProt Q5S007), sequence (Q5S007 whole entry, the tested form may be a part): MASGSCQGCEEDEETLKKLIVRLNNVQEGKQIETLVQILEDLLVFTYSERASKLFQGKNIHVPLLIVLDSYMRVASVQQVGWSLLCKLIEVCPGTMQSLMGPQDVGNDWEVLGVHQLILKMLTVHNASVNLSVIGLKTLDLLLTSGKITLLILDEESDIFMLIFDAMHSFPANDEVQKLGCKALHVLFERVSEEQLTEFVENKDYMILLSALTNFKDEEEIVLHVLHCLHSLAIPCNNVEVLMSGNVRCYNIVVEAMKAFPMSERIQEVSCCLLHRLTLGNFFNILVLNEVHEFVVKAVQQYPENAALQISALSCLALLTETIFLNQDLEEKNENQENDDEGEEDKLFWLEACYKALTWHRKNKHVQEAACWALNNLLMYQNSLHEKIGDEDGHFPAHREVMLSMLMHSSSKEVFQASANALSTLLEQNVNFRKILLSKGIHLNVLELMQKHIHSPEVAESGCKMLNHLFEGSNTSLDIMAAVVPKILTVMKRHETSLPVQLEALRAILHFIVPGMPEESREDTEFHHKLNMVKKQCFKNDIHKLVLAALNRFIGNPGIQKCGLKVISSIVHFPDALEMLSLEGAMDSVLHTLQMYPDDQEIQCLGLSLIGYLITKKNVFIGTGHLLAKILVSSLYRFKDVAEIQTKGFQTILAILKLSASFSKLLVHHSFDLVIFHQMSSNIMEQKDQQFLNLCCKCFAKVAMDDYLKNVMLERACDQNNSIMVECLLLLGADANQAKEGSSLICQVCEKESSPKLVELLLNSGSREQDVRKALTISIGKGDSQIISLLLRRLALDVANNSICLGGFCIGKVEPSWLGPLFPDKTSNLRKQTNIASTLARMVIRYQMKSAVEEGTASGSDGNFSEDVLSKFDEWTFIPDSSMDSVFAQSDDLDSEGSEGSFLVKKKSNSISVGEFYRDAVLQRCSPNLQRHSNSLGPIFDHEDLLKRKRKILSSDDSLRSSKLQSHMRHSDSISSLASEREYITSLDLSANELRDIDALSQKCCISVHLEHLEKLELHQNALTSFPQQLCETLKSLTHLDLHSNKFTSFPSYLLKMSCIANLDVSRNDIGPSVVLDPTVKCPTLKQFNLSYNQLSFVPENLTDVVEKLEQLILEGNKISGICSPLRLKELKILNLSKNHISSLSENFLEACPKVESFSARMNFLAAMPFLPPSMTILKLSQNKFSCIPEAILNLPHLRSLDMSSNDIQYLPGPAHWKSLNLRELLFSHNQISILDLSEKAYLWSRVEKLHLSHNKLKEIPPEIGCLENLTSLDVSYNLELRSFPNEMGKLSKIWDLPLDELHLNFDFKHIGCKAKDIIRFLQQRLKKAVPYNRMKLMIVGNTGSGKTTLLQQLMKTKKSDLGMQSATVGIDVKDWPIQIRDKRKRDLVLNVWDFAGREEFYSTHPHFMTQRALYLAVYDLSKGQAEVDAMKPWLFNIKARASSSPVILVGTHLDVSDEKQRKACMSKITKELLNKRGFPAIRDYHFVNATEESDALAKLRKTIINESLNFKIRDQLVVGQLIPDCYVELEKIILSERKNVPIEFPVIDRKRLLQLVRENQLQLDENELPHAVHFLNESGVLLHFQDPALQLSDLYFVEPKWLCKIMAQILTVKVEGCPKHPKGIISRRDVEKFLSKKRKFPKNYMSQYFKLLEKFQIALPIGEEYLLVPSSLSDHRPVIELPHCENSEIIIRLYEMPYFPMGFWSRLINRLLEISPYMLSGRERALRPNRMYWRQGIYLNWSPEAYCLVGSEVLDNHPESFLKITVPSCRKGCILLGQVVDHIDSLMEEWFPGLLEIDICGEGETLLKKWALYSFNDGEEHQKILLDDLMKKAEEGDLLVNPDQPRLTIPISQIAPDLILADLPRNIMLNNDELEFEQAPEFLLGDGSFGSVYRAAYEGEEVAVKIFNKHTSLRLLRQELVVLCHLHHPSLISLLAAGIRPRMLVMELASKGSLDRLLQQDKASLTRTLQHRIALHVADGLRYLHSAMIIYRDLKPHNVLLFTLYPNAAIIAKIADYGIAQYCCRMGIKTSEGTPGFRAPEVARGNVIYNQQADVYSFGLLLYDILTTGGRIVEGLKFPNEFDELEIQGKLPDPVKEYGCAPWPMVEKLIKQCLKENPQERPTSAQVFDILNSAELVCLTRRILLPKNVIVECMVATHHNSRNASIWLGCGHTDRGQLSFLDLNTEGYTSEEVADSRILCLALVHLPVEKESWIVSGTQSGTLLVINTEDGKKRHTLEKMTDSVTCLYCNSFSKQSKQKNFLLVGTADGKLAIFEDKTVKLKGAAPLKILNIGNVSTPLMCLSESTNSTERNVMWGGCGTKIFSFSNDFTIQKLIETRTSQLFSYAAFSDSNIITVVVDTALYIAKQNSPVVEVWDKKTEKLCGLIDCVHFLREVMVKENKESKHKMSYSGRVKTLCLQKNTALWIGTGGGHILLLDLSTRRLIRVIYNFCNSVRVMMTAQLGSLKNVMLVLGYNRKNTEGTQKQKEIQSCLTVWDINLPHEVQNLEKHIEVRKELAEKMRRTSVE
# MDCK = test: Permeability in MDCK cells expressing MDR1; type: ADME, cell-based, Canis lupus familiaris; settings: dog
# [4] = target: RAC-alpha serine/threonine-protein kinase (Homo sapiens) (UniProt P31749); test: Inhibition of AKT1 (unknown origin) at 1 uM by single point assay
# RAC-alpha serine/threonine-protein kinase (Homo sapiens), sequence (P31749 whole entry): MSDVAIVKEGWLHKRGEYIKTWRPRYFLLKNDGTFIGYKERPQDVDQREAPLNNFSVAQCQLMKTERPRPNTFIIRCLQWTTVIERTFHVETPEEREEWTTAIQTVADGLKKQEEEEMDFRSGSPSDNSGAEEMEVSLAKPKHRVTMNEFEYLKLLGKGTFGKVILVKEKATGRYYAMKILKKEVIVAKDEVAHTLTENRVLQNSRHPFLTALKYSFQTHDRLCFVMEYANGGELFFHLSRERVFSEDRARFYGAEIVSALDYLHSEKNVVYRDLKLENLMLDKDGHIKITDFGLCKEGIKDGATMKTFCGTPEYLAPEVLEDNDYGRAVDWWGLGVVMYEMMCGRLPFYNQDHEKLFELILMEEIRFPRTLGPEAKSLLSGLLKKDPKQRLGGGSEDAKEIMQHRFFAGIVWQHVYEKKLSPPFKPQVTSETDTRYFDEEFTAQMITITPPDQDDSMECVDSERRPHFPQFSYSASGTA
# Brain = test: Drug uptake in brain of MDR1 a/b(-/-) and P-gp competant wild-type FVB mouse at 1 mg/kg, iv after 5 mins; type: ADME, organism-based; parameters: dose 1 mg/kg, route intravenous; settings: in vivo
# [5] = target: Tyrosine-protein kinase JAK1 (Homo sapiens) (UniProt P23458); test: Inhibition of JAK1 (unknown origin) at 1 uM by single point assay
# [6] = target: cAMP-dependent protein kinase catalytic subunit alpha (Homo sapiens) (UniProt P17612); test: Inhibition of PRKACA (unknown origin) at 1 uM by single point assay
# [7] = target: T2, Serine/threonine-protein kinase Chk1 (Homo sapiens) (UniProt O14757); test: Inhibition of CHK1 (unknown origin) at 1 uM by single point assay
# T2 sequence (whole entry): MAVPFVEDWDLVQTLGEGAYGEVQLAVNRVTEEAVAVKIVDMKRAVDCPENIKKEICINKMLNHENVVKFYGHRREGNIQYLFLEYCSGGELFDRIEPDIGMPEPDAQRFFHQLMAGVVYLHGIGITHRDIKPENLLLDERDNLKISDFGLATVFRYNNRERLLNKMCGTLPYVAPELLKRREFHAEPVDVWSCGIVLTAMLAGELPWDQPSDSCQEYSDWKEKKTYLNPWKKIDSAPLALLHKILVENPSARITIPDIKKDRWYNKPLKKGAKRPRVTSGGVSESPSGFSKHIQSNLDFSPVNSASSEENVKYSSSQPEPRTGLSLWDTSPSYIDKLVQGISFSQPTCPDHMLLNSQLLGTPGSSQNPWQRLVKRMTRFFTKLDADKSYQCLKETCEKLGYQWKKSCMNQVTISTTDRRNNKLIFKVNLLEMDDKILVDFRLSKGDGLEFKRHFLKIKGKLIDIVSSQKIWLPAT
# [8] = target: Cyclin-dependent kinase 5/CDK5 activator 1 (Homo sapiens) (UniProt Q00535+Q15078); test: Inhibition of CDK5/p25 (unknown origin) at 1 uM by single point assay; type: protein-complex assay
# [9] = target: Glycogen synthase kinase-3 beta (Homo sapiens) (UniProt P49841); test: Inhibition of GSK3beta (unknown origin) at 1 uM by single point assay
# [10] = target: T3, Dual specificity protein kinase TTK (Homo sapiens) (UniProt P33981); test: Inhibition of TTK (unknown origin) at 1 uM by single point assay
# T3 sequence (whole entry): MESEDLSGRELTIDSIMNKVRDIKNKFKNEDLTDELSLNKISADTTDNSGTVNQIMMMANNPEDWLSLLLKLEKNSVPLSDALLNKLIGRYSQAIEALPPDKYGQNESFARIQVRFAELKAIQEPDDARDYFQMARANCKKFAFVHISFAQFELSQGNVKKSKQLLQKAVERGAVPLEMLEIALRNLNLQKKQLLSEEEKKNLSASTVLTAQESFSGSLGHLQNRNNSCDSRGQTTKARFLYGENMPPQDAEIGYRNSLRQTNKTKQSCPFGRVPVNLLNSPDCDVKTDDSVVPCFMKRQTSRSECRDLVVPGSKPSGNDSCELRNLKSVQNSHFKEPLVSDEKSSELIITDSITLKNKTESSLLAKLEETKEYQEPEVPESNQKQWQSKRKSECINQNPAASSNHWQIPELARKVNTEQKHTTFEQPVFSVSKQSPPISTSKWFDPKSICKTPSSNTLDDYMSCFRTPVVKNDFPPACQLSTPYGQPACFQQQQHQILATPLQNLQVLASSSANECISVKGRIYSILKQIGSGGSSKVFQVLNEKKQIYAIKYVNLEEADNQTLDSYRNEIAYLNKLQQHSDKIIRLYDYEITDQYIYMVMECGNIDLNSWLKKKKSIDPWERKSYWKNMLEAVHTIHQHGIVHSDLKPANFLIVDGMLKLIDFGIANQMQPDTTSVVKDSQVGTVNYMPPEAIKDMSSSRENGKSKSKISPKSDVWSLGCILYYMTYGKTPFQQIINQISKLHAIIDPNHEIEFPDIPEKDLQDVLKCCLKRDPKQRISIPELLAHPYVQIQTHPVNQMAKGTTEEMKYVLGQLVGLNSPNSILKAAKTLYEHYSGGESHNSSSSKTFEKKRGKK
# [11] = target: T1, Leucine-rich repeat serine/threonine-protein kinase 2; test: Inhibition of GST-tagged LRRK2 G2019S mutant (970-2527 amino acids) (unknown origin) assessed as inhibition of LRRKtide phosphorylation by HTRF assay
# [12] = target: T4, Aurora kinase A (Homo sapiens) (UniProt O14965); test: Inhibition of AURKA (unknown origin) at 1 uM by single point assay
# T4 sequence (whole entry): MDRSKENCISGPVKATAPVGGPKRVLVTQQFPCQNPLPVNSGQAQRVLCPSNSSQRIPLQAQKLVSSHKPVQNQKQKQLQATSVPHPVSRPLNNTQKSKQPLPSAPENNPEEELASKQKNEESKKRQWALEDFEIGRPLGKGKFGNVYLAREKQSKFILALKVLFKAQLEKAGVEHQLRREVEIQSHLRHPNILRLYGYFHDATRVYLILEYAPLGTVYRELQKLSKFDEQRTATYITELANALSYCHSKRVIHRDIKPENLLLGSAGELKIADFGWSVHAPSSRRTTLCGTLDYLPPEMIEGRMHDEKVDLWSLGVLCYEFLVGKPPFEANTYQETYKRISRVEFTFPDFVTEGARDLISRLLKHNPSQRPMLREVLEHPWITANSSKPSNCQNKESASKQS
# [13] = target: Mitogen-activated protein kinase 1 (Homo sapiens) (UniProt P28482); test: Inhibition of MAPK1 (unknown origin) at 1 uM by single point assay
# [14] = target: Serine/threonine-protein kinase 16 (Homo sapiens) (UniProt O75716); test: Inhibition of STK16 (unknown origin) at 1 uM by single point assay
# Serine/threonine-protein kinase 16 (Homo sapiens), sequence (O75716 whole entry): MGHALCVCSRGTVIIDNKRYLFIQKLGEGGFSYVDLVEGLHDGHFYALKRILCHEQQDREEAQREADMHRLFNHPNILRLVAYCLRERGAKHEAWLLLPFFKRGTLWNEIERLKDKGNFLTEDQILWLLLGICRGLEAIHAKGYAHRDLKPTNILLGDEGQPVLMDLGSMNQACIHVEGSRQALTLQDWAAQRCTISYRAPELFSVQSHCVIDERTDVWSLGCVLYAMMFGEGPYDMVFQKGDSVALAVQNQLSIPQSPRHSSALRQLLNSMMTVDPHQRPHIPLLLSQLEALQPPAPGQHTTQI
# [15] = target: Tyrosine-protein kinase ABL1 (Homo sapiens) (UniProt P00519); test: Inhibition of ABL1 (unknown origin) at 1 uM by single point assay
# Tyrosine-protein kinase ABL1 (Homo sapiens), sequence (P00519 whole entry): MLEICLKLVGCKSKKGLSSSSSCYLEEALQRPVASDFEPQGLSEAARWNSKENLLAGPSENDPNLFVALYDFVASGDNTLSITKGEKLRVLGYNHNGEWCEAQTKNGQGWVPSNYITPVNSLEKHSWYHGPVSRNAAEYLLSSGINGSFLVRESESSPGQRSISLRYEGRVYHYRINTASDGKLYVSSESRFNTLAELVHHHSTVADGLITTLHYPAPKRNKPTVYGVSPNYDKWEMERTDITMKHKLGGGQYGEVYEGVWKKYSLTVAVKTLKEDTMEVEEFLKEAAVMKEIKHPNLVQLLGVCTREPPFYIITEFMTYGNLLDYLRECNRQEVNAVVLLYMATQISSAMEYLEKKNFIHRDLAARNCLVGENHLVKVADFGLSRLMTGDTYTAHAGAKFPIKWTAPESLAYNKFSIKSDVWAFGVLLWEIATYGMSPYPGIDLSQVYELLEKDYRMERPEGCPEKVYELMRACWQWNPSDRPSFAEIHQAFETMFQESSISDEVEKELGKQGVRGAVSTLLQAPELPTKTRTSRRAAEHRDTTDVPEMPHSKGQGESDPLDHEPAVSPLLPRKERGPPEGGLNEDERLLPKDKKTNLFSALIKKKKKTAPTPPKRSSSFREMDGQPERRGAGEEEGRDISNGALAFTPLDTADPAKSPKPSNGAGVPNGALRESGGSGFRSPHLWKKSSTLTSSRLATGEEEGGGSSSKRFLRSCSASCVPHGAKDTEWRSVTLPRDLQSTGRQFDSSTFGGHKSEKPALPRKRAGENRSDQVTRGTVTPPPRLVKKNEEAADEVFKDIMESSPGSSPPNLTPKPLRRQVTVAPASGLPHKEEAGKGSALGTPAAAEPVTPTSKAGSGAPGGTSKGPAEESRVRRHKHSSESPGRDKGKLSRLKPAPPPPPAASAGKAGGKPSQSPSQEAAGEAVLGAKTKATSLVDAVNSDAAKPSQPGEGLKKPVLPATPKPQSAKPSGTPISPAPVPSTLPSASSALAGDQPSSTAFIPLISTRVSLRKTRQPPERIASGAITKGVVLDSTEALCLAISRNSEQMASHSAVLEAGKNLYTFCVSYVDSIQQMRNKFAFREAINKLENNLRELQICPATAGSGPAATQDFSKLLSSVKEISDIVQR
# [16] = target: Receptor-interacting serine/threonine-protein kinase 2 (Homo sapiens) (UniProt O43353); test: Inhibition of RIPK2 (unknown origin) at 1 uM by single point assay
# T1 sequence (Q5S007 whole entry G2019S, the tested form may be a part): as the sequence (Q5S007 whole entry, the tested form may be a part) above, with G2019S counted along it
# Dual specificity protein kinase CLK1 (Homo sapiens), sequence (P49759 whole entry, looked up): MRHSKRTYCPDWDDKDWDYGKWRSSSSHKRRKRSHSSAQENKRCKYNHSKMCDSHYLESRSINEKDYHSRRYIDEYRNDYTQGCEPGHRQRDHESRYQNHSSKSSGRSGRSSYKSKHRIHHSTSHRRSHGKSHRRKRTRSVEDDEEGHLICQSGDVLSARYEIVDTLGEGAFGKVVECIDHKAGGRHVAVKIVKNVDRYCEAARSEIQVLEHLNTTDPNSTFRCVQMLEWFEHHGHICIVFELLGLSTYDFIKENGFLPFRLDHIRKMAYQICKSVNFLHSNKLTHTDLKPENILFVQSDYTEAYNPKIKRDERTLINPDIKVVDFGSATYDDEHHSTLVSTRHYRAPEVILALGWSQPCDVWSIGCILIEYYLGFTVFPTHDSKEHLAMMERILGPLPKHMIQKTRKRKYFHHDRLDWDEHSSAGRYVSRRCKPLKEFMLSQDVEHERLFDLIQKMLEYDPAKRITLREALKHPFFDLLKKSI
Compound,inhibition [1] [%],EC50 [2] [µM],IC50 [3] [µM],permeability (MDCK),inhibition [4] [%],Drug uptake (Brain),inhibition [5] [%],inhibition [6] [%],inhibition [7] [%],inhibition [8] [%],inhibition [9] [%],inhibition [10] [%],IC50 [11] [µM],inhibition [12] [%],inhibition [13] [%],inhibition [14] [%],inhibition [15] [%],inhibition [16] [%]
CC(C)Nc1c(C#N)cnc2cc(-c3cnn(C)c3)ccc12,27,0.14,0.007,impermeable,0,Active,3,9,64,12,6,-9,0.005,89,-2,10,55,77
C[C@@H](Nc1c(C#N)cnc2cc(-c3ccc(-n4ccoc4=O)cc3)ccc12)C1CC1,,0.731,0.048,impermeable,,Active,,,,,,,0.027,,,,,
CC(C)Nc1c(C#N)cnc2cc(-c3ccc(S(C)(=O)=O)cc3)ccc12,32,0.435,0.031,impermeable,10,Active,16,9,36,16,28,-4,0.028,71,10,3,39,17
